Values after ≈ are worked out from the molar mass of the structure shown.
Legend:
Candida albicans = experiment: Antifungal activity, tube dilution method (MIC); type: cell-based; conditions: 48 h, read-out: Minimum inhibitory concentration, C. albicans, tube dilution, 37 ± 1 °C, 48 h
Protocol: (§1) The in vitro antimicrobial activity of synthesized compounds was done by tube dilution method against Gram-positive bacteria: Staphylococcus aureus, Bacillus subtilis, Gram-negative bacteria: Escherichia coli, Klebsiella pneumonia, Salmonella typhi and fungal: Candida albicans and Aspergillus niger strains using cefadroxil and fluconazole as standard. Dilutions of test and standard compounds were prepared in double strength nutrient broth for bacterial strains and Sabouraud dextrose broth for fungal strains.

Aspergillus niger = experiment: Antifungal activity, tube dilution method (MIC); type: cell-based; conditions: 168 h, read-out: Minimum inhibitory concentration, A. niger, tube dilution, 25 ± 1 °C, 7 days
Protocol: as §1

[1] = Antioxidant activity: free radical scavenging method by DPPH assay; conditions: for % inhibition (DPPH), 25 μg/ml / % inhibition (DPPH), 50 μg/ml / % inhibition (DPPH), 75 μg/ml / % inhibition (DPPH), 100 μg/ml: 30 min, 517 nm; for IC50 (antioxidant activity, DPPH): calculated via graph of % inhibition
Protocol: The antioxidant activity of the newly synthesized compounds were evaluated spectrophotometrically using free radical scavenging method by DPPH (2,2-diphenyl-1-picrylhydrazyl) assay. The DPPH is a stable free radical with maximal absorption at 517 nm and is reduced to a corresponding hydrazine when it reacting with hydrogen donors. […] DPPH solution (3 μg/ml) was prepared in methanol and DPPH (in 1:1) solution was used for blank reference. Four dilutions of different concentrations (25, 50, 75 and 100 μg/ml) of each synthesized compound and standard (ascorbic acid) were prepared in the methanol and 1 ml of each concentration was added to 1 ml of DPPH solution. The solution mixture was shaken vigorously and kept in dark place for 30 min at room temperature and absorbance was measured by UV at 517 nm. Percentage inhibition of Free radical DPPH was calculated as follows:1 %Inhibition=ABlank-ASample/ABlank×100 where, ABlank: absorbance of the blank reaction, ASample: absorbance of the test compound.

[2] = system: α-amylase enzyme (diastase); experiment: Antidiabetic activity: α-amylase inhibitory activity using diastase, colorimetric method; type: biochemical; conditions: for IC50 (antidiabetic activity, α-amylase): calculated via graph of % inhibition
Protocol: All the synthesized compounds were evaluated against α-amylase inhibitory activity by using diastase based on colorimetric method. 0.25 g of soluble potato starch was dissolved in 50 ml of 20 mM phosphate buffer by heating for 15 min. 1 mg diastase (amylase enzyme) was mixed in 100 ml of 20 mM phosphate buffer (pH 6.9) to obtain the enzyme solution. Different concentrations of all the synthesized derivatives were prepared by dissolving them in DMSO. […] 1 ml of enzyme solution was mixed with 1 ml of each synthesized derivatives and incubated for 10 min at 25 °C. Then 1 ml of this mixture was mixed with 1 ml of soluble potato starch solution in a tube and incubated for 10 min at 25 °C. Then tubes were closed after adding 1 ml of color reagent and placed into water bath for 15 min at 85 °C. The reaction mixture was removed from water bath after 15 min. After cooling, the reaction mixture was diluted with 9 ml of distilled water and the absorbance was taken at 540 nm in UV spectrophotometer. Blank solution was prepared by replacing the enzyme solution with buffer solution and absorbance was taken. Measurement of control was performed in identical manner by replacing the synthesized derivatives in 1 ml of DMSO.
Percentage inhibition of α-amylase enzyme was calculated by using following formula:1 %Inhibition=ABlank-ASample/ABlank×100

Staphylococcus aureus = experiment: Antimicrobial activity, tube dilution method (MIC); type: cell-based; conditions: 24 h, read-out: Minimum inhibitory concentration, S. aureus, tube dilution, 37 ± 1 °C, 24 h
Protocol: as §1

Salmonella typhi = experiment: Antimicrobial activity, tube dilution method (MIC); type: cell-based; conditions: 24 h; for MIC: Salmonella enterica, TYPHI, read-out: Minimum inhibitory concentration, S. typhi
Protocol: as §1

Bacillus subtilis = experiment: Antimicrobial activity, tube dilution method (MIC); type: cell-based; conditions: 24 h, read-out: Minimum inhibitory concentration, B. subtilis, tube dilution, 37 ± 1 °C, 24 h
Protocol: as §1

Klebsiella pneumonia = experiment: Antimicrobial activity, tube dilution method (MIC); type: cell-based; conditions: Klebsiella pneumoniae, 24 h, read-out: Minimum inhibitory concentration, K. pneumonia, tube dilution, 37 ± 1 °C, 24 h
Protocol: as §1

Escherichia coli = experiment: Antimicrobial activity, tube dilution method (MIC); type: cell-based; conditions: 24 h, read-out: Minimum inhibitory concentration, E. coli, tube dilution, 37 ± 1 °C, 24 h
Protocol: as §1

| SMILES | MIC (Candida albicans) [mM] | MIC (Aspergillus niger) [mM] | % inhibition (DPPH), 25 μg/ml [1] [%] | % inhibition (DPPH), 50 μg/ml [1] [%] | % inhibition (DPPH), 75 μg/ml [1] [%] | % inhibition (DPPH), 100 μg/ml [1] [%] | IC50 (antioxidant activity, DPPH) [1] [µg/mL] | % inhibition (α-amylase), 25 μg/ml [2] [%] | % inhibition (α-amylase), 50 μg/ml [2] [%] | % inhibition (α-amylase), 75 μg/ml [2] [%] | % inhibition (α-amylase), 100 μg/ml [2] [%] | IC50 (antidiabetic activity, α-amylase) [2] [µg/mL] | melting point [°C] | MIC (Staphylococcus aureus) [mM] | MIC (Salmonella typhi) [mM] | MIC (Bacillus subtilis) [mM] | MIC (Klebsiella pneumonia) [mM] | MIC (Escherichia coli) [mM] | Minimum inhibitory concentration, S. typhi (Salmonella typhi; tube dilution, 37 ± 1 °C) [μΜ/ml] |
| --- | --- | --- | --- | --- | --- | --- | --- | --- | --- | --- | --- | --- | --- | --- | --- | --- | --- | --- | --- |
| CN(C)c1ccc(C=C2SC(=O)NC2=O)cc1 [Compound 6, 5-(4-(Dimethylamino)benzylidene)thiazolidine-2,4-dione] | 20.1 (≈ 4990 µg/mL) | 10.1 (≈ 2500 µg/mL) | 19.54 | 38.93 | 62.65 | 75.82 | 48.13 (≈ 194 µM) | 33.56 | 49.45 | 50.78 | 97.15 | 37.35 (≈ 150 µM) | 147 to 150 | 5 (≈ 1240 µg/mL) | 5 (≈ 1240 µg/mL) | 5 (≈ 1240 µg/mL) | 10.1 (≈ 2500 µg/mL) | 4.99 (≈ 1240 µg/mL) |  |
| O=C1NC(=O)C(=Cc2cccc([N+](=O)[O-])c2)S1 [Compound 7, 5-(3-Nitrobenzylidene)thiazolidine-2,4-dione] | 4.99 (≈ 1250 µg/mL) | 9.9 (≈ 2480 µg/mL) | 20.51 | 35.61 | 79.74 | 86.04 | 55.23 (≈ 221 µM) | 24.72 | 35.71 | 64.87 | 97.15 | 56.09 (≈ 224 µM) | 110 to 113 | 4.99 (≈ 1250 µg/mL) | 4.99 (≈ 1250 µg/mL) | 9.9 (≈ 2480 µg/mL) | 4.99 (≈ 1250 µg/mL) | 4.99 (≈ 1250 µg/mL) |  |
| CCN(CC)c1ccc(/C=C2/SC(=O)NC2=O)cc1 [Compound 8] | 4.5 (≈ 1240 µg/mL) | 4.5 (≈ 1240 µg/mL) | 26.93 | 33.78 | 62.23 | 65.78 | 31.15 (≈ 113 µM) | 20.79 | 39.54 | 40.89 | 93.17 | 56.89 (≈ 206 µM) | 158 to 160 | 4.5 (≈ 1240 µg/mL) | 4.5 (≈ 1240 µg/mL) | 4.5 (≈ 1240 µg/mL) | 4.5 (≈ 1240 µg/mL) | 5 (≈ 1380 µg/mL) |  |
| O=C1NC(=O)C(=Cc2ccc(Br)cc2)S1 [Compound 9, 5-(4-Bromobenzylidene)thiazolidine-2,4-dione] | 4.3 (≈ 1220 µg/mL) | 4.3 (≈ 1220 µg/mL) | 36.83 | 45.41 | 71.51 | 87.34 | 27.66 (≈ 97.3 µM) | 24.73 | 53.78 | 68.34 | 89.37 | 41.67 (≈ 147 µM) | 150 to 152 | 4.3 (≈ 1220 µg/mL) | 4.3 (≈ 1220 µg/mL) | 8.79 (≈ 2500 µg/mL) | 8.79 (≈ 2500 µg/mL) | 8.79 (≈ 2500 µg/mL) |  |
| COc1cc(C=C2SC(=O)NC2=O)cc(OC)c1OC [Compound 10, 5-(3,4,5-Trimethoxybenzylidene)thiazolidine-2,4-dione] |  |  | 28.61 | 39.67 | 59.75 | 86.70 | 43.44 (≈ 147 µM) | 29.34 | 43.98 | 63.36 | 98.14 | 47.49 (≈ 161 µM) | 210 to 213 |  | 4.2 (≈ 1240 µg/mL) |  | 4.2 (≈ 1240 µg/mL) | 8.4 (≈ 2480 µg/mL) | 4.20 |
| O=C1NC(=O)/C(=C\c2cccc(Cl)c2)S1 [Compound 14, 5-(3-Chlorobenzylidene)thiazolidiine-2,4-dione] |  |  |  |  |  |  |  |  |  |  |  |  | 137 to 140 |  |  |  |  |  |  |
| COc1ccccc1C=C1SC(=O)NC1=O [Compound 15, 5-(2-Methoxybenzylidene)thiazolidine-2,4-dione] | 5.31 (≈ 1250 µg/mL) | 5.31 (≈ 1250 µg/mL) | 33.51 | 43.98 | 77.21 | 98.67 | 43.25 (≈ 184 µM) | 32.59 | 51.78 | 66.98 | 81.30 | 22.35 (≈ 95 µM) | 147 to 150 | 5.31 (≈ 1250 µg/mL) | 5.31 (≈ 1250 µg/mL) | 5.31 (≈ 1250 µg/mL) |  | 5.31 (≈ 1250 µg/mL) |  |
| COc1cc(C=C2SC(=O)NC2=O)ccc1O [Compound 18, 5-(4-Hydroxy-3-methoxybenzylidene)thiazolidine-2,4-dione] | 4.9 (≈ 1230 µg/mL) | 4.9 (≈ 1230 µg/mL) | 36.94 | 43.52 | 60.12 | 93.03 | 33.51 (≈ 133 µM) | 18.64 | 45.85 | 65.11 | 95.98 | 56.39 (≈ 224 µM) |  | 4.9 (≈ 1230 µg/mL) | 4.9 (≈ 1230 µg/mL) | 4.9 (≈ 1230 µg/mL) | 9.9 (≈ 2490 µg/mL) | 4.9 (≈ 1230 µg/mL) |  |
| COc1ccc(C=C2SC(=O)NC2=O)cc1OC [Compound 19, 5-(3,4-Dimethoxybenzylidene)thiazolidine-2,4-dione] | 4.7 (≈ 1250 µg/mL) | 4.7 (≈ 1250 µg/mL) | 28.64 | 39.67 | 73.41 | 90.05 | 46.03 (≈ 174 µM) | 29.33 | 47.77 | 58.34 | 90.86 | 40.01 (≈ 151 µM) |  | 4.7 (≈ 1250 µg/mL) | 4.7 (≈ 1250 µg/mL) | 4.7 (≈ 1250 µg/mL) | 9.4 (≈ 2490 µg/mL) | 4.7 (≈ 1250 µg/mL) |  |
| O=C1NC(=O)C(=C/C=C/c2ccccc2)S1 [Compound 20, 5-((E)-3-Phenylallylidene)thiazolidine-2,4-dione] | 5.4 (≈ 1250 µg/mL) | 5.4 (≈ 1250 µg/mL) | 25.64 | 46.93 | 69.55 | 87.97 | 43.89 (≈ 190 µM) | 34.73 | 45.98 | 68.34 | 88.45 | 31.62 (≈ 137 µM) |  | 5.4 (≈ 1250 µg/mL) | 5.4 (≈ 1250 µg/mL) | 5.4 (≈ 1250 µg/mL) | 10.8 (≈ 2500 µg/mL) | 5.4 (≈ 1250 µg/mL) |  |

— paper PMC6768028, “Synthesis, SAR and in vitro therapeutic potentials of thiazolidine-2,4-diones” (Chemistry Central Journal, 2018)
